Legend:
α-glycosidase [1] = assay: PNPG enzyme inhibition assay, reference inhibitor; format: biochemical
α-glycosidase [2] = assay: PNPG enzyme inhibition assay; format: biochemical

Row | Compound | IC50 (α-glycosidase [1]) | IC50 (α-glycosidase [2])
1 | C[C@H]1O[C@H](O[C@H]2[C@H](O)[C@@H](O)[C@@H](O[C@H]3[C@H](O)[C@@H](O)C(O)O[C@@H]3CO)O[C@@H]2CO)[C@H](O)[C@@H](O)[C@@H]1N[C@H]1C=C(CO)[C@@H](O)[C@H](O)[C@H]1O (stereo partly drawn) [acarbose] | 1100 µM | 
2 | CC[C@H](C)/C=C(C)/C=C/C1=CC2=C(Cl)C(=O)[C@]3(C)OC(=O)[C@@H](C(C)=O)[C@@H]3C2=CO1 [compound 11, isochromophilone I] |  | 17.3 µM
3 | CC[C@H](C)/C=C(C)/C=C/C1=CC2=C(Cl)C(=O)[C@](C)(OC(C)=O)C(=O)C2=CN1 [compound 14, scleratioramine] |  | 166 µM

— paper PMC6563140, “Azaphilones from the Marine Sponge-Derived Fungus Penicillium sclerotiorum OUCMDZ-3839” (Marine Drugs, 2019)
